Assay results: patent publication US11174250B2, “Substituted carboxamides as inhibitors of WDR5 protein-protein binding” (PROPELLON THERAPEUTICS INC., priority 2016, dated 2021)
Like-named read-outs stand apart in the source and are kept apart here.

Experiments:
[1] = system: MV4-11 cells; experiment: Cell proliferation assay (ATPlite); assay type: cell-based; details: Homo sapiens, MV4-11, 120 h; MV-411 cells, five days; read-out: In vitro whole cell potency in MV-411 cells, (IC50)
Description: MV4-11 cells were seeded into a 96-well plate at 1,000 cells/well in 150 μl medium (Alpha-MEM containing 10% FBS, 100 μg/ml Normocin, and 50 μg/ml Gentamycin, Invitrogen). A HP D300 digital dispenser was used to dose cells with DMSO or test compounds across a 10-point range of concentrations (high dose of 10 μM), and cultures were grown in a humidified 5% CO2 incubator at 37° C. After five days, plates were removed from incubator and equilibrated to room temperature. An equal volume of ATPlite assay reagent was added to each well, and samples were processed according to manufacturer's instructions (Perkin Elmer). Luminescent signal was measured using an Envision plate reader equipped with a US-Luminescence detector.

[2] = molecular target: MLL1-WRAD2 complex (Homo sapiens (Human), UniProt P61964); experiment: MLL1-WRAD2 enzyme assay (in vitro methyl transferase assay); assay type: biochemical
Description: Reaction was initiated with 1 μM 3H-SAM and incubated for 1 hour at 30° C. Reaction mixture was transferred to P81 filter-paper and washed with PBS before detection.

[3] = molecular target: WDR5 protein (Homo sapiens (Human), UniProt P61964); experiment: Surface Plasmon Resonance (SPR) assay; assay type: binding; details: for residence time: τ=1/koff, read-out: Residence Time (t, min)
[4] = MLL1-WRAD2 assay, read-out: In vitro MLL1 activity (IC50)
[5] = SPR, Table 1, read-out: WDR5 binding affinity (KD)
[6] = SPR, Table 2, read-out: WDR5 binding affinity SPR (KD)

| Structure (SMILES) | IC50 [1] | IC50 [2, 4] | Kd [3, 5] | Kd [3, 6] | residence time ([3]; SPR) | IC50 ([2]; Table 4, effect of Fluoro-substitution, read-out: IC50 (MLL1)) | τ ([3]; Table 4, effect of Fluoro-substitution) | Kd ([3]; Table 4, effect of Fluoro-substitution, read-out: KD (SPR)) |
| --- | --- | --- | --- | --- | --- | --- | --- | --- |
| CN1CCN(c2ccc(-c3cc(CNC4CCCCC4)ccc3F)cc2NC(=O)c2c[nH]c(=O)cc2C(F)(F)F)CC1 [Example 7, N-(5′-((cyclohexylamino)methyl)-2′-fluoro-4-(4-methylpiperazin-1-yl)-[1,1′-biphenyl]-3-yl)-6-oxo-4-(trifluoromethyl)-1,6-dihydropyridine-3-carboxamide] | 0.41 µM | 0.216 µM | 0.004 µM | 0.004 µM | 7.88 min |  |  |  |
| CN1CCN(c2ccc(-c3cc(OCC4CC4)ncc3F)cc2NC(=O)c2c[nH]c(=O)cc2C(F)(F)F)CC1 [Example 15, N-(5-(2-(cyclopropylmethoxy)-5-fluoropyridin-4-yl)-2-(4-methylpiperazin-1-yl)phenyl)-6-oxo-4-(trifluoromethyl)-1,6-dihydropyridine-3-carboxamide] | 2.26 µM | 2.25 µM | 0.009 µM | 0.009 µM | 4.04 min |  |  |  |
| CC1CN(c2ccc(-c3cc(CN4CCOCC4)ccc3F)cc2NC(=O)c2c[nH]c(=O)cc2C(F)(F)F)CCN1C (stereo not shown) [Example 26, N-(4-(3,4-dimethylpiperazin-1-yl)-2′-fluoro-5′-(morpholinomethyl)-[1,1′-biphenyl]-3-yl)-6-hydroxy-4-(trifluoromethyl)nicotinamide] | 0.491 µM |  | 0.009 µM | 0.009 µM | 3.07 min |  |  |  |
| CN1CCN(c2ccc(-c3cc(CN4CCOCC4)ccc3F)cc2NC(=O)c2cc(O)cc(F)c2F)CC1 [Example 48, 2,3-difluoro-N-(2′-fluoro-4-(4-methylpiperazin-1-yl)-5′-(morpholinomethyl)-[1,1′-biphenyl]-3-yl)-5-hydroxybenzamide] |  | 21.3 µM | 0.093 µM | 0.093 µM | 0.61 min |  |  |  |
| CCN1CCN(c2ccc(-c3cc(CN4CCOCC4)ccc3F)cc2NC(=O)c2c[nH]c(=O)cc2C(F)(F)F)CC1 [Example 62, N-(4-(4-ethylpiperazin-1-yl)-2′-fluoro-5′-(morpholinomethyl)-[1,1′-biphenyl]-3-yl)-6-oxo-4-(trifluoromethyl)-1,6-dihydropyridine-3-carboxamide] |  | 13.5 µM | > 0.2 µM | > 0.2 µM |  |  |  |  |
| CN1CCN(c2ncc(-c3cc(CN4CCOCC4)ccc3F)cc2NC(=O)c2c[nH]c(=O)cc2C(F)(F)F)CC1 [Example 84, N-(5-(2-fluoro-5-(morpholinomethyl)phenyl)-2-(4-methylpiperazin-1-yl)pyridin-3-yl)-6-oxo-4-(trifluoromethyl)-1,6-dihydropyridine-3-carboxamide] |  | > 30 µM | 0.022 µM | 0.022 µM |  |  |  |  |
| C[C@H]1CN(c2ccc(-c3ncccc3F)cc2NC(=O)c2c[nH]c(=O)cc2C(F)(F)F)CCN1C [Example 96, (S)—N-(2-(3,4-dimethylpiperazin-1-yl)-5-(3-fluoropyridin-2-yl)phenyl)-6-oxo-4-(trifluoromethyl)-1,6-dihydropyridine-3-carboxamide] |  | 2.53 µM | 0.0026 µM | 0.003 µM |  |  |  |  |
| CN1CCN(c2ccc(-c3cc(CN4CCOCC4)ccc3F)c(F)c2NC(=O)c2c[nH]c(=O)cc2C(F)(F)F)CC1 [Example 99, N-(2,2′-difluoro-4-(4-methylpiperazin-1-yl)-5′-(morpholinomethyl)-[1,1′-biphenyl]-3-yl)-6-oxo-4-(trifluoromethyl)-1,6-dihydropyridine-3-carboxamide] |  | 3.98 µM | 0.014 µM | 0.014 µM | 2.2 min |  |  |  |
| C[C@@H]1CN(c2ccc(-c3cc(CN(C)C4COC4)c(F)cc3F)cc2NC(=O)c2c[nH]c(=O)cc2C(F)(F)F)C[C@H](C)N1C [Example 113, N-(2′,4′-difluoro-5′-((methyl(oxetan-3-yl)amino)methyl)-4-((3S,5R)-3,4,5-trimethylpiperazin-1-yl)-[1,1′-biphenyl]-3-yl)-6-oxo-4-(trifluoromethyl)-1,6-dihydropyridine-3-carboxamide] |  | 2.1 µM | 0.0082 µM | 0.008 µM | 5.5 min |  |  |  |
| CC1CN(c2ccc(-c3cc(C(=O)NC4CCCCC4)ccc3F)cc2NC(=O)c2c[nH]c(=O)cc2C(F)(F)F)CC(C)N1C (stereo not shown) [Example 124, N-(5′-(cyclohexylcarbamoyl)-2′-fluoro-4-(3,4,5-trimethylpiperazin-1-yl)-[1,1′-biphenyl]-3-yl)-6-oxo-4-(trifluoromethyl)-1,6-dihydropyridine-3-carboxamide] |  | 0.293 µM | 0.0017 µM | 0.0017 µM | 20.6 min |  |  |  |
| CN1CCN(c2ccc(-c3cc(CN4CCC(F)CC4)ccc3F)cc2NC(=O)c2c[nH]c(=O)cc2C(F)(F)F)CC1 [drawing 287] |  |  |  |  |  | 0.592 µM | 5.44 min | 0.011 µM |

The remaining compounds from weak to strong by IC50 [2, 4], led by results:

| IC50 [1] | IC50 [2, 4] | Kd [3, 5] | Kd [3, 6] | residence time ([3]; SPR) | IC50 ([2]; Table 4, effect of Fluoro-substitution, read-out: IC50 (MLL1)) | τ ([3]; Table 4, effect of Fluoro-substitution) | Kd ([3]; Table 4, effect of Fluoro-substitution, read-out: KD (SPR)) | Structure (SMILES) |
| --- | --- | --- | --- | --- | --- | --- | --- | --- |
|  | 11.1 µM | 0.013 µM | 0.013 µM | 4.3 min |  |  |  | C[C@@H]1CN(c2ccc(-c3c(F)ccc(CNC4CCCCC4)c3F)cc2NC(=O)c2c[nH]c(=O)cc2C(F)(F)F)C[C@H](C)N1C [Example 114, N-(3′-((cyclohexylamino)methyl)-2′,6′-difluoro-4-((3S,5R)-3,4,5-trimethylpiperazin-1-yl)-[1,1′-biphenyl]-3-yl)-6-oxo-4-(trifluoromethyl)-1,6-dihydropyridine-3-carboxamide] |
|  | 7.3 µM | 0.0094 µM | 0.0094 µM | 9.93 min |  |  |  | CN1CCN(c2ccc(-c3cc(CN4CCOCC4)ccc3F)cc2NC(=O)c2c[nH]c(=O)cc2C(F)(F)F)CC1CO (stereo not shown) [Example 65, N-(2′-fluoro-4-(3-(hydroxymethyl)-4-methylpiperazin-1-yl)-5′-(morpholinomethyl)-[1,1′-biphenyl]-3-yl)-6-oxo-4-(trifluoromethyl)-1,6-dihydropyridine-3-carboxamide] |
|  | 4.49 µM | 0.007 µM | 0.007 µM | 2.29 min |  |  |  | CN1CCN(c2ccc(-c3cc(CN4CCOCC4)cnc3F)cc2NC(=O)c2c[nH]c(=O)cc2C(F)(F)F)CC1 [Example 61, N-(5-(2-fluoro-5-(morpholinomethyl)pyridin-3-yl)-2-(4-methylpiperazin-1-yl)phenyl)-6-oxo-4-(trifluoromethyl)-1,6-dihydropyridine-3-carboxamide] |
|  | 1.41 µM | 0.007 µM | 0.007 µM | 9.5 min |  |  |  | C[C@@H]1CN(c2ccc(-c3cc(CN4CCOCC4)cnc3F)cc2NC(=O)c2c[nH]c(=O)cc2C(F)(F)F)C[C@H](C)N1C [Example 60, N-(5-(2-fluoro-5-(morpholinomethyl)pyridin-3-yl)-2-((3S,5R)-3,4,5-trimethylpiperazin-1-yl)phenyl)-6-oxo-4-(trifluoromethyl)-1,6-dihydropyridine-3-carboxamide] |
|  | 1.09 µM | 0.0065 µM | 0.0064 µM | 3 min |  |  |  | CNC(=O)c1ccc(F)c(-c2ccc(N3C[C@@H](C)N(C)[C@@H](C)C3)c(NC(=O)c3c[nH]c(=O)cc3C(F)(F)F)c2)c1 [Example 90, N-(2′-fluoro-5′-(methylcarbamoyl)-4-((3S,5R)-3,4,5-trimethylpiperazin-1-yl)-[1,1′-biphenyl]-3-yl)-6-oxo-4-(trifluoromethyl)-1,6-dihydropyridine-3-carboxamide] |
| 3.18 µM | 0.966 µM | 0.011 µM | 0.011 µM | 6.4 min |  |  |  | COCOc1cc(F)c(-c2ccc(N3CCN(C)CC3)c(NC(=O)c3c[nH]c(=O)cc3C(F)(F)F)c2)cc1C(=O)NC(C)(C)CC(C)(C)C [Example 3, N-(2′-fluoro-4′-(methoxymethoxy)-4-(4-methylpiperazin-1-yl)-5′-((2,4,4-trimethylpentan-2-yl)carbamoyl)-[1,1′-biphenyl]-3-yl)-6-oxo-4-(trifluoromethyl)-1,6-dihydropyridine-3-carboxamide] |
|  | 0.607 µM | 0.0042 µM | 0.004 µM | 7.2 min |  |  |  | CN1CCN(c2ccc(-c3cc(C(=O)N(C)C4CCCCC4)ccc3F)cc2NC(=O)c2c[nH]c(=O)cc2C(F)(F)F)CC1 [Example 110, N-(5′-(cyclohexyl(methyl)carbamoyl)-2′-fluoro-4-(4-methylpiperazin-1-yl)-[1,1′-biphenyl]-3-yl)-6-oxo-4-(trifluoromethyl)-1,6-dihydropyridine-3-carboxamide] |
|  | 0.203 µM | 0.0024 µM | 0.024 µM | 34 min |  |  |  | C[C@@H]1CN(c2ccc(-c3cc(C(=O)N(C)C4CCCCC4)ccc3F)cc2NC(=O)c2c[nH]c(=O)cc2C(F)(F)F)C[C@H](C)N1C [Example 111, N-(5′-(cyclohexyl(methyl)carbamoyl)-2′-fluoro-4-((3S,5R)-3,4,5-trimethylpiperazin-1-yl)-[1,1′-biphenyl]-3-yl)-6-oxo-4-(trifluoromethyl)-1,6-dihydropyridine-3-carboxamide] |
|  | 0.197 µM | 0.0031 µM | 0.003 µM | 9.6 min |  |  |  | C[C@@H]1CN(c2ccc(-c3cc(C(=O)NC4CC4)ccc3F)cc2NC(=O)c2c[nH]c(=O)cc2C(F)(F)F)C[C@H](C)N1C [Example 93, N-(5′-(cyclopropylcarbamoyl)-2′-fluoro-4-((3S,5R)-3,4,5-trimethylpiperazin-1-yl)-[1,1′-biphenyl]-3-yl)-6-oxo-4-(trifluoromethyl)-1,6-dihydropyridine-3-carboxamide] |
